US4668514A, “Penicillin derivatives” (Taiho Pharmaceutical Company Limited, priority 1983, dated 1987)

The compounds below were run against penicillinase (β-lactamase) derived from Bacillus sp. (assay: β-lactamase inhibitory activity measured by microiodometry using penicillin G as substrate). Conditions: read-out: 50% Inhibitory Concentration.
Format: biochemical
Experimental: Test for β-lactamase inhibitory activity
The inhibitory activity against penicillinase (β-lactamase) derived from Bacillus sp. was measured by microiodometry Tanpakushitsu Kakusan Koso (Protein Nucleic Acid Enzyme), vol. 23, No. 5, pp 391 to 400 (1978) using penicillin G as a substrate.
Work on `Cc1cnnn1C[C@@]1(C)[C@H](C(=O)O)N2C(=O)C[C@H]2S1(=O)=O` [Compound 11, sodium 2β-(5-methyl-1,2,3-triazol-1-yl)methyl-2α-methylpenam-3α-carboxylate 1,1-dioxide] yielded an IC50 of 0.24 µM.
Work on `CCOC(=O)c1nnn(C[C@@]2(C)[C@H](C(=O)O)N3C(=O)C[C@H]3S2(=O)=O)c1-c1ccccc1` [Compound 44, sodium 2β-(4-ethoxycarbonyl-5-phenyl-1,2,3-triazol-1-yl)methyl-2α-methylpenam-3α-carboxylate 1,1-dioxide] yielded an IC50 of 0.4 µM.
In the case of `C[C@]1(Cn2nnc(C(N)=O)c2C(N)=O)[C@H](C(=O)O)N2C(=O)C[C@H]2S1(=O)=O` [Compound 31, sodium 2β-(4,5-dicarbamoyl-1,2,3-triazol-1-yl)methyl-2α-methylpenam-3α-carboxylate 1,1-dioxide], the IC50 is reported as 0.13 µM.
`CCOC(=O)c1c(-c2ccccc2)nnn1C[C@@]1(C)[C@H](C(=O)O)N2C(=O)C[C@H]2S1(=O)=O` [Compound 45, sodium 2β-(5-ethoxycarbonyl-4-phenyl-1,2,3-triazol-1-yl)methyl-2α-methylpenam-3α-carboxylate 1,1-dioxide] gave an IC50 of 0.1 µM.
For `COCc1cnnn1C[C@@]1(C)[C@H](C(=O)O)N2C(=O)C[C@H]2S1(=O)=O` [Compound 22, sodium 2β-(5-methoxymethyl-1,2,3-triazol-1-yl)methyl-2α-methylpenam-3α-carboxylate 1,1-dioxide], the IC50 was 1.8 µM.
Work on `C[C@]1(Cn2cc(N)nn2)[C@H](C(=O)O)N2C(=O)C[C@H]2S1(=O)=O` [Compound 55, 2β-(4-amino-1,2,3-triazol-1-yl)methyl-2α-methylpenam-3α-carboxylic acid 1,1-dioxide] yielded an IC50 of 0.7 µM.
`CCNC(=O)c1cn(C[C@@]2(C)[C@H](C(=O)O)N3C(=O)C[C@H]3S2(=O)=O)nn1` [Compound 29, sodium 2β-(4-ethylcarbamoyl-1,2,3-triazol-1-yl)methyl-2α-methylpenam-3α-carboxylate 1,1-dioxide] was tested, and the IC50 was 0.02 µM.
`C[C@]1(Cn2nnc(CO)c2CO)[C@H](C(=O)O)N2C(=O)C[C@H]2S1(=O)=O` [Compound 50, sodium 2β-(4,5-dihydroxymethyl-1,2,3-triazol-1-yl)methyl-2α-methylpenam-3α-carboxylate 1,1-dioxide] gave an IC50 of 2 µM.
`CC(=O)c1cn(C[C@@]2(C)[C@H](C(=O)OCc3ccc([N+](=O)[O-])cc3)N3C(=O)C[C@H]3S2(=O)=O)nn1` [Compound 32, p-nitrobenzyl 2β-(4-acetyl-1,2,3-triazol-1-yl)methyl-2α-methylpenam-3α-carboxylate 1,1-dioxide] was tested, and the IC50 was 0.12 µM.
`C[C@]1(Cn2nnc(-c3ccccc3)c2-c2ccccc2)[C@H](C(=O)O)N2C(=O)C[C@H]2S1(=O)=O` [Compound 17, 2β-(4,5-diphenyl-1,2,3-triazol-1-yl)methyl-2α-methylpenam-3α-carboxylic acid 1,1-dioxide] was tested, and the IC50 was 0.27 µM.
In the case of `C[C@]1(Cn2nncc2-c2ccccc2)[C@H](C(=O)O)N2C(=O)C[C@H]2S1(=O)=O` [Compound 15, sodium 2β-(5-phenyl-1,2,3-triazol-1-yl)methyl-2α-methylpenam-3α-carboxylate 1,1-dioxide], the IC50 is reported as 0.28 µM.
With `CC(=O)OCc1nnn(C[C@@]2(C)[C@H](C(=O)O)N3C(=O)C[C@H]3S2(=O)=O)c1COC(C)=O` [Compound 47, sodium-2β-(4,5-diacetoxymethyl-1,2,3-triazol-1-yl)methyl-2α-methylpenam-3α-carboxylate 1,1-dioxide] the IC50 was 2.5 µM.
`CCCCc1nnn(C[C@@]2(C)[C@H](C(=O)O)N3C(=O)C[C@H]3S2(=O)=O)c1CCCC` [Compound 5, sodium 2β-(4,5-di-n-butyl-1,2,3-triazol-1-yl)methyl-2α-methylpenam-3α-carboxylate 1,1-dioxide] gave an IC50 of 3 µM.
Work on `CCCCc1cn(C[C@@]2(C)[C@H](C(=O)O)N3C(=O)C[C@H]3S2(=O)=O)nn1` [Compound 8, sodium 2β-(4-n-butyl-1,2,3-triazol-1-yl)methyl-2α-methylpenam-3α-carboxylate 1,1-dioxide] yielded an IC50 of 0.23 µM.
Work on `CCCCc1cnnn1C[C@@]1(C)[C@H](C(=O)O)N2C(=O)C[C@H]2S1(=O)=O` [Compound 9, sodium 2β-(5-n-butyl-1,2,3-triazol-1-yl)methyl-2α-methylpenam-3α-carboxylate 1,1-dioxide] yielded an IC50 of 0.65 µM.
`C[C@]1(Cn2nnc(COCc3ccccc3)c2COCc2ccccc2)[C@H](C(=O)O)N2C(=O)C[C@H]2S1(=O)=O` [Compound 49, 2β-(4,5-dibenzyloxymethyl-1,2,3-triazol-1-yl)methyl-2α-methylpenam-3α-carboxylic acid 1,1-dioxide] gave an IC50 of 1.5 µM.
Work on `C[C@]1(Cn2cc(-c3ccccc3)nn2)[C@H](C(=O)O)N2C(=O)C[C@H]2S1(=O)=O` [Compound 14, sodium 2β-(4-phenyl-1,2,3-triazol-1-yl)methyl-2α-methylpenam-3α-carboxylate 1,1-dioxide] yielded an IC50 of 0.04 µM.
For `C[C@]1(Cn2cc(C(F)(F)F)nn2)[C@H](C(=O)O)N2C(=O)C[C@H]2S1(=O)=O` [Compound 19, sodium 2α-methylpenam-2β-(4-trifluoromethyl-1,2,3-triazol-1-yl)methyl-3α-carboxylate 1,1-dioxide], the IC50 was 0.24 µM.
`Cc1nnn(C[C@@]2(C)[C@H](C(=O)O)N3C(=O)C[C@H]3S2(=O)=O)c1C` [Compound 2, sodium 2β-(4,5-dimethyl-1,2,3-triazol-1-yl)methyl-2α-methylpenam-3α-carboxylate 1,1-dioxide] was tested, and the IC50 was 0.08 µM.
